The text below walks through data of US7351714B2, “7-imino derivatives of camptothecin having antitumor activity” (priority 2004, dated 2008).

The subject of one series is NCI H460. Nature of the series: antiproliferative activity test (cytotoxic activity) on human tumour cells. In kind it is cell-based. The following applies: H-460. As to the method: Cytotoxic activity of the compounds of the present invention was assayed in cell systems of human tumour cells, using the antiproliferative activity test as a method of evaluation of the cytotoxic potential.
The cell line used is a lung non-small cell carcinoma that belongs to non-small cells hystotype named NCI H460.

The subject of series [1] is MKN-28 human gastric carcinoma. In words: antitumor activity per os in athymic nude mice bearing s.c. tumor xenograft. In kind it is in vivo. The following applies: q4dx4; for TVI % (Tumor volume inhibition % in treated over control tumors): 11-12 day after last treatment. The source says:
A compound is considered active when TVI %≧50.

The conditions of series [2]: cited from earlier work.

A word on the IC50: it is the concentration that inhibits the measured activity by half. Consider `CC[C@@]1(O)C(=O)OCc2c1cc1n(c2=O)Cc2c-1nc1ccccc1c2C=Nc1ccccc1` [ST1546, 7-phenyliminomethylcamptothecin], for which the midpoint of inhibition with NCI H460, the IC50, lay at 130 nM. As for `CC[C@@]1(O)C(=O)OCc2c1cc1n(c2=O)Cc2c-1nc1ccccc1c2C=Nc1ccc([N+](=O)[O-])cc1` [ST1561, 7-(4-nitrophenyl)iminomethylcamptothecin], in the series on NCI H460, it took 280 nM to reach half-maximal inhibition (IC50). In turn, `CC[C@@]1(O)C(=O)OCc2c1cc1n(c2=O)Cc2c-1nc1ccccc1c2C=Nc1ccccc1SSc1ccccc1N` [ST1737, 7-2-(2-aminophenyldithio)phenyliminomethylcamptothecin] gave an IC50 with NCI H460 of 17 nM. For the same molecule, the “Tox (Dead/treated mice)” value in series [1] (4 mg/kg per os), in series [1] (7 mg/kg per os) and in series [1] (12 mg/kg per os) was 0/4 in each case. For the same molecule, the “TVI % (Tumor volume inhibition % in treated over control tumors)” value is recorded as 69% in series [1] (4 mg/kg per os), 56% in series [1] (7 mg/kg per os) and 68% in series [1] (12 mg/kg per os). In addition, in series [1] (12 mg/kg per os), the “BWL % (Body weight loss % induced by drug treatment)” value was found to be 4%. In the case of `CC[C@@]1(O)C(=O)OCc2c1cc1n(c2=O)Cc2c-1nc1ccccc1c2C=Nc1ccc(SSc2ccc(N)cc2)cc1` [ST2034, 7-4-(4-aminophenyldithio)phenyliminomethylcamptothecin], in the series with NCI H460, inhibition was half-maximal at 390 nM (IC50). Same read-out and setting: next, `CC[C@@]1(O)C(=O)OCc2c1cc1n(c2=O)Cc2c-1nc1ccccc1c2C=Nc1ccc(Sc2ccc(N)cc2)cc1` [ST2069, 7-4-(4-aminophenylthio)phenyliminomethylcamptothecin]: 240 nM. Still for that read-out and setting: with `CC[C@@]1(O)C(=O)OCc2c1cc1n(c2=O)Cc2c-1nc1ccccc1c2C=Nc1ccccc1SC` [ST2138, 7-(2-methylthiophenyl)iminomethylcamptothecin] the figure was 60 nM; with `CC[C@@]1(O)C(=O)OCc2c1cc1n(c2=O)Cc2c-1nc1ccccc1c2C=Nc1ccccc1C` [ST2212, 7-(2-methylphenyl)iminomethylcamptothecin], 100 nM; with `CC[C@@]1(O)C(=O)OCc2c1cc1n(c2=O)Cc2c-1nc1ccccc1c2C=Nc1ccccc1Cl` [ST2228, 7-(2-chlorophenyl)iminomethylcamptothecin], 70 nM. In the series on NCI H460, `CC[C@@]1(O)C(=O)OCc2c1cc1n(c2=O)Cc2c-1nc1ccccc1c2C=Nc1ccccc1I` [ST2316, 7-(2-iodophenyl)iminomethylcamptothecin] registered a half-inhibitory concentration (IC50) of 60 nM. `CC[C@@]1(O)C(=O)OCc2c1cc1n(c2=O)Cc2c-1nc1ccccc1c2C=Nc1c(C)cccc1C` [ST2317, 7-(2,6-dimethylphenyl)iminomethylcamptothecin] came in with a half-inhibitory concentration (IC50) in the series with NCI H460 of 150 nM. Same read-out and setting: next, `CC[C@@]1(O)C(=O)OCc2c1cc1n(c2=O)Cc2c-1nc1ccccc1c2C=Nc1ccccc1OC` [ST2343, 7-(2-methoxyphenyl)iminomethylcamptothecin]: 60 nM. The same measure, in the same setting: next, `CC[C@@]1(O)C(=O)OCc2c1cc1n(c2=O)Cc2c-1nc1ccccc1c2C=Nc1ccccc1C(C)(C)C` [ST2388, 7-(2-t-butylphenyl)iminomethylcamptothecin]: 70 nM; `CC[C@@]1(O)C(=O)OCc2c1cc1n(c2=O)Cc2c-1nc1ccccc1c2C=Nc1ccccc1O` [ST2389, 7-(2-hydroxyphenyl)iminomethylcamptothecin]: 60 nM; `CC[C@@]1(O)C(=O)OCc2c1cc1n(c2=O)Cc2c-1nc1ccccc1c2C=Nc1ccc(Cl)cc1` [ST2412, 7-(4-chlorophenyl)iminomethylcamptothecin]: 80 nM. On the same count and under the same terms, with `CC[C@@]1(O)C(=O)OCc2c1cc1n(c2=O)Cc2c-1nc1ccccc1c2C=Nc1ccc(OC)cc1` [ST2477, 7-(4-methoxyphenyl)iminomethylcamptothecin] the figure was 160 nM; with `CCC1(O)C(=O)OCc2c1cc1n(c2=O)Cc2c-1nc1ccccc1c2C=Nc1ccc(C)cc1` (stereo not shown) [ST2478, 7-(4-methylphenyl)iminomethylcamptothecin], 180 nM; with `CCC1(O)C(=O)OCc2c1cc1n(c2=O)Cc2c-1nc1ccccc1c2C=Nc1ccc(O)cc1` (stereo not shown) [ST 2616, 7-(4-hydroxyphenyliminomethyl)-camptothecin], 220 nM.

In the series on NCI H460, `CCC1(O)C(=O)OCc2c1cc1n(c2=O)Cc2c-1nc1ccccc1c2C=Nc1ccc(C(C)(C)C)cc1` (stereo not shown) [ST 2619, 7-(4-tert-butylphenyliminomethyl)-camptothecin] gave a concentration for half-maximal inhibition (IC50) of 90 nM. Still for that read-out and setting: next, `CCC1(O)C(=O)OCc2c1cc1n(c2=O)Cc2c-1nc1ccccc1c2C=Nc1ccc(SC)cc1` (stereo not shown) [ST 2667, 7-(4-methylthiophenyliminomethyl)-camptothecin]: 74 nM.

As for `CC[C@@]1(O)C(=O)OCc2c1cc1n(c2=O)Cc2cc3c(CN(C)C)c(O)ccc3nc2-1` [Topotecan], the “level in the cerebrospinal fluid with respect to plasma” value in series [2] (10 minutes after infusion) is listed as 30%. For the same molecule, the “lactone form hydrolysed to open ring” value in series [2] (30 minutes after infusion) is on record as 50%.
